# Source: patent publication US20040077674A1, “Mappicine analogs, intermediates in the synthesis of mappicine analogs and methods of synthesis of mappicine analogs” (priority 2002, published 2004)
# How the values were obtained:
# [1] = target: T1, RNA-dependent DNA polymerase activity of HIV reverse transcriptase (Human immunodeficiency virus type 1 group M subtype B, UniProt P03366); assay: RNA-dependent DNA polymerase activity assay of HIV reverse transcriptase; assay type: biochemical, HIV-1; settings: 10 μM inhibitor concentration; activity in presence / in absence of analog x 100
# T1 construct: made in house
# Protocol: In separate representative assays, mappicine analogs were tested for their ability to inhibit the RNA-dependent DNA polymerase activity of HIV reverse transcriptase and for their ability to inhibit the RNase H activity of HIV reverse transcriptase. The assay for RNA-dependent DNA polymerase activity is discussed in Borkow, G. et al., “Inhibition of the Ribonuclease H and DNA Polymerase Activities of HIV-1 Reverse Transcriptase by N-(4-tert-Butylbenzoyl)-2-hydroxy-1-naphthaldehyde Hydrazone,” Biochemistry 1997, 36, 3179-3185, a copy of which is attached hereto and the disclosure of which is incorporated herein by reference. Assays were carried out in the absence and in the presence of mappicine analogs (10 μM final concentration). The results are reported as % residual activity, which is the RNA-dependent DNA polymerase activity of the enzyme in the presence of the mappicine analog divided by the RNA-dependent activity of the enzyme in the absence of the mappicine analog, multiplied by 100.
# [2] = target: T2, RNase H activity of HIV reverse transcriptase (Human immunodeficiency virus type 1 group M subtype B, UniProt P03366); assay: Fluorescence (FRET)-based RNase H assay of HIV reverse transcriptase; assay type: biochemical, HIV-1; settings: for Residual activity (%) RNase H: 10 μM inhibitor concentration, activity in presence / in absence of analog x 100; for % inhibition of RNase H at 20 μM: 20 μM inhibitor concentration
# T2 construct: 2.5 nM of the p51/p66 RT heterodimer in the assay; made in house
# Protocol: Recently, a fluorescence-based assay to perform screens in search of HIV RNase H inhibitors has been developed. The assay, which is carried out in 96-well microplates and is adaptable to robotics, is the first high-throughput screen for RNase H and is described in further detail in the Experimental section. HIV-1 RT and human RNase H were cloned, and thus comparative analysis of inhibitor action could be conducted simultaneously.
# The assay for RNase H activity of HIV reverse transcriptase was the fluorescence-based assay described in detail in the Experimental section and discussed in U.S. Provisional Patent Application Serial No. 60/318,359. Assays were carried out in the absence and in the presence of mappicine analogs (10 μM or 20 μM final concentration). The results are reported as % residual activity, which is the RNase H activity of the enzyme in the presence of the mappicine analog divided by the RNase H activity of the enzyme in the absence of the mappicine analog, multiplied by 100. Alternatively, the results are reported as % inhibition, which is calculated as the ratio of the RNase H activity of the enzyme in the presence of the mappicine analog to the enzyme activity in the absence of the mappicine analog, multiplied by 100, and then subtracting this number from 100.
# Assay for Ribonuclease H Activity Based on Fluorescence Resonance Energy Transfer (FRET)
# Preparation of the Fluorophore-RNA/Quencher-DNA Hybrid Duplex Substrate.
# The RNA/DNA hybrid duplex substrate for use in the assay comprises an RNA oligonucleotide of sequence 5′-GAU CUG AGC CUG GGA GCU-3′, modified at the 3′-end with Aminolink-2 and derivatized with fluorescein isothiocyanate, to provide a modified RNA oligonucleotide of the sequence 5′-GAU CUG AGC CUG GGA GCU-fluorescein-3′, annealed to a complementary DNA oligonucleotide of the sequence 5′-AGC TCC CAG GCT CAG ATC-3′ modified at the 5′-end with Aminolink-2 and derivatized with the FRET acceptor DABCYL succinimidyl ester, to provide a modified DNA oligonucleotide of the sequence 5′-DABCYL-AGC TCC CAG GCT CAG ATC-3′.
# To prepare the 3′-fluorescein-RNA/5′-DABCYL-DNA hybrid duplex substrate, a known amount of 3′-fluorescein-RNA was dissolved in 20 mM Tris buffer (pH 8.0, 37° C.) to provide a final concentration of 5 μM. Two equivalents of the 5′-DABCYL-DNA oligonucleotide were added, and the mixture was heated to 90° C. for 5 min and cooled slowly to room temperature to allow duplex formation. The positioning of the fluorescein donor at the 3′-end of the RNA oligonucleotide and the DABCYL acceptor at the 5′-end of the DNA oligonucleotide provides a very close proximity of the donor and acceptor that results in a very intense quenching of the fluorescein emission in the intact RNA/DNA hybrid duplex substrate due to the spectral overlap of the fluorescence emission of fluorescein with the absorption spectrum of DABCYL. In addition, DABCYL is non-fluorescent, and thus cannot contribute any light emission. Both of these factors result in a very low background and provide a high signal-to-noise in the assay measurements. The ratio of the donor fluorescence in the absence and in the presence of its quencher is approximately fifteen-fold.
# Microplate Assay Protocol for the Measurement of RNase H Activity Using the RNA/IDNA Hybrid Duplex Substrate.
# Reaction assay mixtures contained 5 μl of a stock solution of 2.5 μM RNA/DNA hybrid duplex substrate added to 85 μl of assay buffer (50 mM Tris, pH 8.0, 37° C., containing 60 mM KCl and 2.5 mM MgCl2), prepared in the wells of a 96-well fluorescence microtiter plate, and warmed to 37° C. using the temperature control of the SpectraMax Gemini XS microplate spectrofluorometer (Molecular Devices). Reactions were started by the addition of 5 μl of a solution of recombinant HIV-1 reverse transcriptase (usually providing a final concentration of 2.5 nM of the p51/p66 RT heterodimer in the assay), and mixing using the automatic mixing function of the microplate spectrofluorometer. […]
Molecule,Residual activity (%) Polymerase [1] [%],Residual activity (%) RNase H [2] [%],% inhibition of RNase H at 20 μM [2] [%]
"2-Acetoxy-12-ethyl-7-(1-hydroxypropyl)-8-methyl-1H-indolizino [1,2-b]quinolin-9-one [5 (AG 7M)]",99,63,
CCC(O)c1cc2n(c(=O)c1C)Cc1c-2nc2ccccc2c1-c1ccccc1 (stereo not shown) [5 (3Aα)],90,97,
CCC(=O)c1cc2n(c(=O)c1C)Cc1c-2nc2ccccc2c1-c1ccccc1 [5 (3Aακ)],64,87,
Cc1c(C(O)C(C)(C)C)cc2n(c1=O)Cc1c-2nc2ccccc2c1-c1ccccc1 (stereo not shown) [5 (3Aβ)],54,95,
Cc1c(C(=O)C(C)(C)C)cc2n(c1=O)Cc1c-2nc2ccccc2c1-c1ccccc1 [5 (3Aβκ)],64,94,
Cc1c(C(O)CCC2CCCCC2)cc2n(c1=O)Cc1c-2nc2ccccc2c1-c1ccccc1 (stereo not shown) [5 (3Aδ)],32,104,
Cc1c(C(=O)CCC2CCCCC2)cc2n(c1=O)Cc1c-2nc2ccccc2c1-c1ccccc1 [5 (3Aδκ)],66,73,
Cc1c(C(O)Cc2ccccc2)cc2n(c1=O)Cc1c-2nc2ccccc2c1-c1ccccc1 (stereo not shown) [5 (3Aε)],34,99,
CCC(O)c1cc2n(c(=O)c1C)Cc1c-2nc2ccc(F)cc2c1-c1ccccc1 (stereo not shown) [5 (3Bα)],54,83,
CCC(=O)c1cc2n(c(=O)c1C)Cc1c-2nc2ccc(F)cc2c1-c1ccccc1 [5 (3Bακ)],100,94,
Cc1c(C(O)C(C)(C)C)cc2n(c1=O)Cc1c-2nc2ccc(F)cc2c1-c1ccccc1 (stereo not shown) [5 (3Bβ)],78,75,
Cc1c(C(=O)C(C)(C)C)cc2n(c1=O)Cc1c-2nc2ccc(F)cc2c1-c1ccccc1 [5 (3Bβκ)],61,95,
Cc1c(C(O)CCC2CCCCC2)cc2n(c1=O)Cc1c-2nc2ccc(F)cc2c1-c1ccccc1 (stereo not shown) [5 (3Bδ)],81,99,
Cc1c(C(=O)CCC2CCCCC2)cc2n(c1=O)Cc1c-2nc2ccc(F)cc2c1-c1ccccc1 [5 (3Bδκ)],59,93,
Cc1c(C(O)Cc2ccccc2)cc2n(c1=O)Cc1c-2nc2ccc(F)cc2c1-c1ccccc1 (stereo not shown) [5 (3Bε)],28,91,
CCC(O)c1cc2n(c(=O)c1C)Cc1c-2nc2ccc(C)cc2c1-c1ccccc1 (stereo not shown) [5 (3Cα)],64,96,
CCC(=O)c1cc2n(c(=O)c1C)Cc1c-2nc2ccc(C)cc2c1-c1ccccc1 [5 (3Cακ)],71,99,
Cc1ccc2nc3c(c(-c4ccccc4)c2c1)Cn1c-3cc(C(=O)C(C)(C)C)c(C)c1=O [5 (3Cβκ)],63,96,
Cc1ccc2nc3c(c(-c4ccccc4)c2c1)Cn1c-3cc(C(=O)CCC2CCCCC2)c(C)c1=O [5 (3Cδκ)],65,93,

Molecule,Residual activity (%) Polymerase [1] [%],Residual activity (%) RNase H [2] [%],% inhibition of RNase H at 20 μM [2] [%]
Cc1ccc2nc3c(c(-c4ccccc4)c2c1)Cn1c-3cc(C(O)Cc2ccccc2)c(C)c1=O (stereo not shown) [5 (3Cε)],76,101,
CCC(O)c1cc2n(c(=O)c1C)Cc1c-2nc2ccc(OC)cc2c1-c1ccccc1 (stereo not shown) [5 (3Dα)],69,78,
CCC(=O)c1cc2n(c(=O)c1C)Cc1c-2nc2ccc(OC)cc2c1-c1ccccc1 [5 (3Dακ)],76,104,
COc1ccc2nc3c(c(-c4ccccc4)c2c1)Cn1c-3cc(C(O)C(C)(C)C)c(C)c1=O (stereo not shown) [5 (3Dβ)],85,70,
COc1ccc2nc3c(c(-c4ccccc4)c2c1)Cn1c-3cc(C(O)CCC2CCCCC2)c(C)c1=O (stereo not shown) [5 (3Dδ)],60,67,
COc1ccc2nc3c(c(-c4ccccc4)c2c1)Cn1c-3cc(C(=O)CCC2CCCCC2)c(C)c1=O [5 (3Dδκ)],81,97,
COc1ccc2nc3c(c(-c4ccccc4)c2c1)Cn1c-3cc(C(O)Cc2ccccc2)c(C)c1=O (stereo not shown) [5 (3Dε)],61,79,
COc1ccc2nc3c(c(-c4ccccc4)c2c1)Cn1c-3cc(C(=O)Cc2ccccc2)c(C)c1=O [5 (3Dεκ)],73,88,
CCC(O)c1cc2n(c(=O)c1C)Cc1c-2nc2ccccc2c1[Si](C)(C)C(C)(C)C (stereo not shown) [5 (4Aα)],67,104,
CCC(=O)c1cc2n(c(=O)c1C)Cc1c-2nc2ccccc2c1[Si](C)(C)C(C)(C)C [5 (4Aακ)],43,76,
Cc1c(C(O)C(C)(C)C)cc2n(c1=O)Cc1c-2nc2ccccc2c1[Si](C)(C)C(C)(C)C (stereo not shown) [5 (4Aβ)],71,101,
Cc1c(C(=O)C(C)(C)C)cc2n(c1=O)Cc1c-2nc2ccccc2c1[Si](C)(C)C(C)(C)C [5 (4Aβκ)],79,70,
Cc1c(C(O)CCC2CCCCC2)cc2n(c1=O)Cc1c-2nc2ccccc2c1[Si](C)(C)C(C)(C)C (stereo not shown) [5 (4Aδ)],45,95,
Cc1c(C(=O)CCC2CCCCC2)cc2n(c1=O)Cc1c-2nc2ccccc2c1[Si](C)(C)C(C)(C)C [5 (4Aδκ)],39,102,
CCCCCc1c2c(nc3ccc(C(F)(F)F)cc13)-c1cc(C(O)CCC3CCCCC3)c(C)c(=O)n1C2 (stereo not shown) [Compound 7.7.4],,,75
CCc1ccc2nc3c(c(-c4ccccc4)c2c1)Cn1c-3cc(C(O)CCC2CCCCC2)c(C)c1=O (stereo not shown) [Compound 7.8.5],,,65
Cc1c(C(O)CCC2CCCCC2)cc2n(c1=O)Cc1c-2nc2ccc(Cl)cc2c1-c1ccccc1 (stereo not shown) [Compound 7.8.6],,,90
Cc1ccc2nc3c(c(-c4ccccc4)c2c1)Cn1c-3cc(C(O)CCC2CCCCC2)c(C)c1=O (stereo not shown) [Compound 7.8.9],,,61
